Data on six molecules can be found in patent US5086054A, “Novel arylcycloalkanepolyalkylamines” (SRI International, priority 1990, dated 1992).

“Also recorded” adds a separate entry of the source. Read-outs that look alike come from different tables or passages of the source. Where only a bound is given, the exact number is not on record here.

One series deals with σ receptors. The settings on record: literature; cited from earlier work.
A further series deals with σ binding sites. To be noted: microinjections into red nucleus and substantia nigra; cited from earlier work.
For series [1] the following is noted: clinical trials; cited from earlier work.
For series [2], the system named is climbing behavior in mice. To be noted: cited from earlier work.
In series [3] the test system is conditioned avoidance responses in rat. The settings on record: cited from earlier work.
For another series, the system named is σ receptor. To be noted: rat spinal cord and brain membranes; cited from earlier work.
The test system of series [4] is postsynaptic dopamine receptors. The settings on record: mesolimbic area; cited from earlier work.
A further series addresses T1, SIGMA RECEPTOR (Cavia porcellus, UniProt Q60492).
T1 construct: Two milliter aliquots of the brain membrane preparation, containing 1.7 mg of protein; tissue Pel-Freeze (Rogers, Arkansas); host or cells: guinea-pig brains plus cerebella, membranes
Kind of series: Sigma receptor binding assay ([3H]-d-SKF-10,047 displacement, brain membranes). On the set-up: species or system guinea-pig (male Hartley). To be noted: for SIGMA RECEPTOR SLOPE: Table 1, slope of dose response curve. Summed up:
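Guinea-pig brain-plus-cerebellum membranes (1.7 mg protein) in 0.1 M Tris-HCl pH 7.4 incubated 1 h at 23°C with 2 nM [3H]-d-SKF-10,047 and competitor, quadruplicate. Nonspecific binding defined by 0.1 mM d-SKF-10,047; bound ligand collected on GF/C filters, counted by liquid scintillation.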

A further series addresses PCP RECEPTOR
Briefly: PCP receptor binding assay ([3H]-TCP displacement, brain membranes). On the set-up: species or system guinea-pig (male Hartley). Summed up:
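Guinea-pig brain-plus-cerebellum membranes (1.7 mg protein) were incubated 1 h at 23° C with competitor. σ sites used 2 nM [3H]-d-SKF-10,047 in 0.1 M Tris pH 7.4, with 0.1 mM d-SKF-10,047 for nonspecific binding. PCP sites used 1 nM [3H]-TCP in 5 mM Tris pH 7.4, with 0.1 mM phencyclidine for nonspecific binding. Filter-bound radioactivity was counted.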

The conditions of series [5]: humans; cited from earlier work.
The conditions of series [6]: literature; cited from earlier work.
A further series deals with T2, DOPAMINE D2 (Cavia porcellus, UniProt H0VE83).
T2 construct: printed as cerebral cortical tissue, [3H]spiroperidol, haloperidol blank
Briefly: Dopamine D2 receptor binding ([3H]-spiroperidol). More on the design: species or system guinea-pig. The source says:
(§1) This example illustrates the testing of compounds of this invention in dopamine D2, 5-HT2, muscarinic acetylcholine, α1 -adrenoceptor and β-adrenoceptor receptor assays. The receptor assay methods are described in Eur. J. Pharmacol., 155:345 (1988) except that in the β-adrenoceptor assay, [^125 I]-pindolol was used instead of [^3 H] dihydroalprenolol.
(§2) In this study, guinea-pig brains were used for binding studies. Homogenization and centrifugation procedures for preparation of brain membranes for each receptor assay were the same as described in Example 4 for the σ and PCP receptors. However, brain regions, tissue contents, and buffers may differ depending on the assay. Conditions of binding assays for various receptors were as follows:
For dopamine D2 assay, 3 H-spiroperidol (0.15 nM) was incubated in a 2 ml assay (50 mM Tris-HCl, pH 7.4) for 2 hours at 23° C. with membranes from 12 mg of cerebral cortical tissue.
(§3) Filtration and washing conditions were the same as described above for the σ receptor assay. Nonspecific binding for each receptor was defined by the inclusion of 1 μM haloperidol for dopamine D2, 1 μM haloperidol for 5-HT2, 10 μM scopolamine for muscarinic acetylcholine, 10 μM prazosin for α1 -adrenoceptor, and 0.2 μM 1-propranolol for β-adrenoceptor. Retained radioactivity was measured by liquid scintillation spectrometry except for ^125 I-pindolol which was measured by the LKB gamma counter.
(§4) Programs in Biomed. 17:107 (1983)].

Another series concerns MUSCARINIC ACETYLCHOLINE
It is filed as binding, guinea-pig.
Excerpt: as §1, §2
For muscarinic acetylcholine assay, […]) [^3 H]-quinuclidinyl benzylate ([^3 H]-QNB) was incubated in a 2 ml assay (50 mM Tris-HCl, pH 7.4) for 2 hours at 23° C. with membranes from 2 mg of whole brain minus cerebellum.
as §3, §4

Another series deals with 5-HT2 (Cavia porcellus, UniProt A0A286Y537). Briefly: 5-HT2 receptor binding. More on the design: species or system guinea-pig.
Excerpt: as §1, §2, §3, §4

The next series concerns the target α1 -ADRENOCEPTOR
Kind of series: α1-adrenoceptor binding ([3H]-prazosin). More on the design: species or system guinea-pig. The settings on record: Table 4; IC50 and nM only stated in text; read-out: α1 -ADRENOCEPTOR
Excerpt: as §1, §2
For α1 -adrenoceptor assay, [^3 H]-prazosin (0.4 nM) was incubated in a 1 ml assay (50 mM Tris-HCl, pH 7.4) for 1 hour at 23° C. with membranes from 1 mg of whole brain minus cerebellum.
as §3, §4

In the next series the target is β-ADRENOCEPTOR
Kind of series: β-adrenoceptor binding ([125I]-pindolol). On the set-up: species or system guinea-pig. The settings on record: Table 4; IC50 and nM only stated in text; read-out: β-ADRENOCEPTOR
Excerpt: as §1, §2
For β-adrenoceptor, [^125 I]-pindolol (0.05 nM) was incubated in a 1 ml assay (50 mM Tris-HCl, pH 7.4) for 1 hr at 23° C. with membranes from 1 mg of whole brain minus cerebellum.
as §3, §4

The test system of another series is dopamine D-2 receptor. To be noted: literature; cited from earlier work.
[7] abbreviates: Table 1, mean ± error (n), read-out: PCP RECEPTOR IC50.

T1 sequence (Q60492 whole entry): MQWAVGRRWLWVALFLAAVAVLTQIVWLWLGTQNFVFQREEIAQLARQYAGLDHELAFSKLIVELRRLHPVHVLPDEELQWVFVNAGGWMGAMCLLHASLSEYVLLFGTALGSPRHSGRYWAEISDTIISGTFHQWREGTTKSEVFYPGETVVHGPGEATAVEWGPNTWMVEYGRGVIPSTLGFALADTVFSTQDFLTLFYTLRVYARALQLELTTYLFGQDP
5-HT2, sequence (A0A286Y537 1-470): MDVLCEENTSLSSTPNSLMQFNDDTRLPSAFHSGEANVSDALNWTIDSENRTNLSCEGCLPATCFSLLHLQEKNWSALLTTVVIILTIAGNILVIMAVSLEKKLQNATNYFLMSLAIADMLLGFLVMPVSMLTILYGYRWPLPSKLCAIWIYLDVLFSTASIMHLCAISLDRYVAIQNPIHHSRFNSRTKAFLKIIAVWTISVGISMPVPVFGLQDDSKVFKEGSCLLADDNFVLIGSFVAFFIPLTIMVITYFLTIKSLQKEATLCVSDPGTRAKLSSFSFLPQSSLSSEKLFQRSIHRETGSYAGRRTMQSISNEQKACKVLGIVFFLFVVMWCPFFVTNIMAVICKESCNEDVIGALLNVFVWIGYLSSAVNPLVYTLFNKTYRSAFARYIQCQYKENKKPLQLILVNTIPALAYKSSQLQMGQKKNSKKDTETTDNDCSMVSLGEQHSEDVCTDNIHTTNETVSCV
T2 sequence (H0VE83 entry or part of it): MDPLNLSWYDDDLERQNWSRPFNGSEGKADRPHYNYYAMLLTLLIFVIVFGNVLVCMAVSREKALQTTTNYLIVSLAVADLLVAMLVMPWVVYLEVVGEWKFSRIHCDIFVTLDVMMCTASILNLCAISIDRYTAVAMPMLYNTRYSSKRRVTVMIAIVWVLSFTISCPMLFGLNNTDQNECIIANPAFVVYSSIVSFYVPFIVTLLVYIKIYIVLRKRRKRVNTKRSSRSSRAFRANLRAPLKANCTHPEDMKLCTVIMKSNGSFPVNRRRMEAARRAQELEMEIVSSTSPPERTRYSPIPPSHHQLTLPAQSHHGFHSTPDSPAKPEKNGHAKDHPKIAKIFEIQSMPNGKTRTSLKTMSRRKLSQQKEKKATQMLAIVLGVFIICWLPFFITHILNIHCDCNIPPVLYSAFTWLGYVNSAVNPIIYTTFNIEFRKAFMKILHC

`Cc1ccccc1NC(=N)Nc1ccccc1C` [DTG, 1,3-di-o-tolylguanidine]: in the series with σ receptors, the “affinity / binding at σ receptors (in words)” value (from here on “affinity / binding”) is recorded as “bind to σ receptors”. Further, the contralateral circling behavior result in the series with σ binding sites is “produce vigorous contralateral circling behavior”.
In the case of `C[C@@H]1CN(CCCn2c3ccccc3c3ccccc32)C[C@H](C)N1` [rimcazole, cis-9-[3-(3,5-dimethyl-1-piperazinyl)propyl]carbozole], in the series on σ receptors, the “affinity / binding” value was “potent and selective σ receptor ligands; also recorded: high-affinity, σ-selective”. In addition, the clinical antipsychotic effects result in series [1] is “display clinical antipsychotic effects”. For the same molecule, the cataleptic state entry in series [2] (associated with EPS) was “without producing the cataleptic state”. For the same molecule, the climbing behavior entry in series [2] is recorded as “antagonize climbing behavior in mice”. Moreover, in [3], the conditioned avoidance responses entry is given as “did not influence conditioned avoidance responses in rat”. The “inhibition of specific binding of NAN” value in the series on σ receptor is “competitively inhibit specific binding of the σ receptor ligand NAN”. Besides, in series [4], the “action at postsynaptic dopamine receptors” value is given as “did not exert its action at the level of postsynaptic dopamine receptors in the mesolimbic area”.
For the molecule `c1ccc(C2(N3CCCCC3)CCCCC2)cc1` [Compound 1, 1-(1-phenylcylohexyl)piperidine, reference compound], the “SIGMA RECEPTOR SLOPE” value at SIGMA RECEPTOR came out at 0.95 ± 0.12. Besides, the IC50 at PCP RECEPTOR (setting [7]) came out at 45 ± 5 nM. The psychotic reactions result in [5] is “causes psychotic reactions such as hallucinations, thought disorders and paranoid delusions similar to an acute schizophrenic episode”. For the same molecule, in series [6], the “motor and behavioral effects” value is “alter gross motor activity and spatial alternation performance and to induce stereotypic movements”.
`CCN1CCC[C@H]1CNC(=O)c1c(OC)ccc(Br)c1OC` [remoxipride]: the “affinity / binding” value in the series on σ receptors is “potent and selective σ receptor ligands”. The clinical antipsychotic effects result in [1] was “display clinical antipsychotic effects”.
Consider `CCN(CC)CCOC(=O)C1(c2ccccc2)CCCCC1.Cl` [Compound 15, 2-(Diethylamino)ethyl 1-phenylcyclohexane-1-carboxylate hydrochloride], for which, at SIGMA RECEPTOR, the “SIGMA RECEPTOR SLOPE” value is on record as 0.66 ± 0.16. Besides, the IC50 on SIGMA RECEPTOR (Table 4, IC50 and nM only stated in text, read-out: SIGMA) is 30 ± 5 nM; on SIGMA RECEPTOR (read-out: IC50 at σ receptors), less than 100 nM; at PCP RECEPTOR (setting [7]) it was 40900 nM; on PCP RECEPTOR (Table 4, IC50 and nM only stated in text, read-out: PCP) it was 40900 nM; in the series on MUSCARINIC ACETYLCHOLINE (Table 4, IC50 and nM only stated in text, read-out: MUSCARINIC ACETYLCHOLINE), 189 ± 35 nM; in the series on MUSCARINIC ACETYLCHOLINE (read-out: potency (IC50) at muscarinic acetylcholine receptor), 189 nM. In addition, the IC50 at 5-HT2 (Table 4, IC50 and nM only stated in text, read-out: 5-HT2) turned out to be 2180 nM; at α1 -ADRENOCEPTOR it was 30100 nM; on β-ADRENOCEPTOR, 81900 nM. Moreover, at SIGMA RECEPTOR (hydrochloride), the “potency at σ receptors (in words)” value is recorded as “σ receptor potency increased; also recorded: very potent in the σ assay; also recorded: very high”. For the same molecule, the “potency at PCP receptors (in words)” value in the series with PCP RECEPTOR (hydrochloride) is “inactive in the PCP assay; also recorded: very weak or inactive in the PCP assay; also recorded: negligible; also recorded: low potency at PCP receptors”. Also, the “potency at dopamine D-2 receptors (in words)” value at DOPAMINE D2 is “moderate potencies at dopamine D-2 and 5-HT2 receptors”. In addition, the “potency at muscarinic acetylcholine receptors (in words)” value in the series with MUSCARINIC ACETYLCHOLINE is listed as “quite potent at muscarinic acetylcholine receptors”. Further, the “potency at 5-HT2 receptors (in words)” value at 5-HT2 is “moderate potencies at dopamine D-2 and 5-HT2 receptors”.
Regarding `O=C(CCCN1CCC(O)(c2ccc(Cl)cc2)CC1)c1ccc(F)cc1` [haloperidol, 4-[4-(p-chlorophenyl)-4-hydroxypiperidino]-4'-fluorobutyrophenone], in the series with σ receptors, the “affinity / binding” value is listed as “high affinity for the σ site; also recorded: bind to σ receptors”. Further, in the series on dopamine D-2 receptor, the “dopamine D-2 receptor antagonism (in words)” value is reported as “potent dopamine D-2 receptor antagonist”.
